Source: patent US20170168067A1, “CHROMATIN-ACTIVITY-BASED CHEMOPROTEOMIC (CHAC) METHODS AND SYSTEMS FOR DISEASE MARKER DISCOVERY AND DEVELOPMENT” (The University of North Carolina at Chapel Hill, priority 2014, published 2017)
Peptide text beside a SMILES is read from it. * marks the point of attachment. Cbz = O=C(OCc1ccccc1)*

Columns and labels:
[1] = tested on: c-Myc; assay: c-Myc accumulation after proteasome inhibition, immunoblot; assay type: cell-based, mouse; settings: LPS-primed, 10 mM MG-132
Experimental: Raw264.7 or TLR4/MD2/CD14 293 cell lines were primed with 100 ng/ml^−1 LPS for 24 h and then treated with 1 mg/ml^−1 cycloheximide (Sigma-Aldrich; #C4859) for indicated time. Cells were harvested and subjected to immunoblot analysis by using anti-c-Myc antibody. Exposed films of immunoblot were scanned and quantified by ImageJ densitometry software. The intensity of each band was plotted in scatter plot and c-Myc half-life was determined on computed curve. Raw264.7 cells were primed with 100 ng/ml^−1 LPS for 24 h and then treated with 10 mM MG-132 for time indicated. C-Myc accumulation was reflected in immunoblot against c-Myc by short- and long-exposure. b-Actin and g-Tubulin were represented as loading controls.

[2] = tested on: H3K27; assay: immunoblot analysis of methylated H3K27; assay type: cell-based, mouse; settings: treated cells
Experimental: (§1) Core histone proteins were prepared by Histone Purification Mini Kit (Active Motif; cat#40026). Adhered cells were washed with prewarmed serum-free media twice and were then harvested. The pellet was lysed with 1.5 ml extraction buffer per 2×10^7 cells and homogenized by repetitive pipetting. The cell lysate was processed under agitation for 2 h at 4° C. before the crude histone was clarified, neutralized and loaded onto the column. Histone proteins were purified by a C8 column and were precipitated by 4% perchloric acid according to the manufacturer's instructions and were resolved in HPLC water. All steps were processed on ice or in cold room, for the maximum preservation of histone modifications.

[3] = tested on: MTA1; assay: ChIP-PCR binding of MTA1 to T-class genes; assay type: cell-based, mouse; settings: treated BMDMs
Experimental: (§2) ChIP experiments for studying histone modifiers and TFs were carried out in dual crosslinking way (Porro et al., 2007) with minor modifications. Cells were fixed using 2 mM DSG (disuccinimidyl glutarate, ProteomChem #c1104) for 45 min. Formaldehyde (1% v/v) was then added and incubated for 15 min. Crosslinking reactions were quenched by adding glycine to 0.1 M, followed by PBS washing. Cells were scraped and nuclei were pelleted by 0.5% NP-40 lysis buffer (50 mM pH 8.0 Tris-HCl, 85 mM KCl, 0.5% NP-40). The nuclear fraction was extracted with RIPA buffer (50 mM pH 8.0 Tris-HCl, 150 mM NaCl, 1 mM EDTA, 1% Triton-X-100, 0.1% SDS, 0.1% sodium deoxycholate) and sonicated to 200 to 1,000 bp DNA fragments, then incubated overnight with the antibody. The antibody complexes were linked to protein A/salmon sperm DNA beads (Cell Signaling, cat #9007) and washed thoroughly. The complexes were then eluted from the beads by 1% SDS, and incubated with NaCl to reverse the crosslinked products. Later, proteins were digested by protease-K and the released DNA was purified by QIAquick PCR purification Kit (Qiagen, cat #28104), and processed to quantitative PCR assay. ChIP experiments for studying histone post-PTMs were started from a one-step fixation of 1% (v/v) formaldehyde for 10 min, followed by the same steps as dual crosslinking ChIP described above.

[4] = molecular target: T1, G9a (Homo sapiens, UniProt Q96KQ7); settings: Vedadi et al., 2011; cited from earlier work
T1 sequence (Q96KQ7 1-1210): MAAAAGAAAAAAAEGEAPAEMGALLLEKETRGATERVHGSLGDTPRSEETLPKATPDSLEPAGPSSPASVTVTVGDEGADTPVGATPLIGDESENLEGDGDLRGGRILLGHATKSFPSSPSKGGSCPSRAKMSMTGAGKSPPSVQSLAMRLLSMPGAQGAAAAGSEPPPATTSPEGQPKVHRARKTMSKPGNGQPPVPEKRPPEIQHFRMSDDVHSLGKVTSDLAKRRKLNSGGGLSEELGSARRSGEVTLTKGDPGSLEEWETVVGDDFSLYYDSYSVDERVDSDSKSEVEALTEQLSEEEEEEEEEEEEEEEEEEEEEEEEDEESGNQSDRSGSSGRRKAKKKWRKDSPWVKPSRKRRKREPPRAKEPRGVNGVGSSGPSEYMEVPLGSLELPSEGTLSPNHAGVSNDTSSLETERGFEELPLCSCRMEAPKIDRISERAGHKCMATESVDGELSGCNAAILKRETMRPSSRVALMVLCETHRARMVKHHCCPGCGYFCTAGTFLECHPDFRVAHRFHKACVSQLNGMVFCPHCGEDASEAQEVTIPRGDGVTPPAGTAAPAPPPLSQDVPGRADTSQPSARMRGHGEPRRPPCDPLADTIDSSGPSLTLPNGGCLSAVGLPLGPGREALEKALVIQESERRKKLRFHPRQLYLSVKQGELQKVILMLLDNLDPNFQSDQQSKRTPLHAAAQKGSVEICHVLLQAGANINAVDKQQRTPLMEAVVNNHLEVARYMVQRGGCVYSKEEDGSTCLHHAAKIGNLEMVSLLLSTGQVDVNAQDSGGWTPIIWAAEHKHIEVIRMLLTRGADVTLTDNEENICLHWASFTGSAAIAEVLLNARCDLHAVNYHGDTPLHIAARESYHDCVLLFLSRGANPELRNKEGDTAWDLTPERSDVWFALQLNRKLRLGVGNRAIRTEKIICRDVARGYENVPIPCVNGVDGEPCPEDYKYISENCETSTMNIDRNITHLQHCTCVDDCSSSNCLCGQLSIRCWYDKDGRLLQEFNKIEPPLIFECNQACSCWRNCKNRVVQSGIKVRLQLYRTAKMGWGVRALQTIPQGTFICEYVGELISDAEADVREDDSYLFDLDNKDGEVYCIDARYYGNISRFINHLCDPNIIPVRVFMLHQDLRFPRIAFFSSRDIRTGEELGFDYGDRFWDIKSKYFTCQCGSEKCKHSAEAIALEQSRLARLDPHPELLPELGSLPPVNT

[5] = tested on: c-Myc; assay: ChIP-qPCR binding of c-Myc to gene loci; assay type: cell-based, mouse
Experimental: as §2

[6] = tested on: BMDM secretome; assay: Label-free quantitative analysis of macrophage secretome; assay type: cell-based, mouse; settings: BMDMs under TL pre-treated with 250 nM for 16 h
Experimental: Referring now to FIG. 1, cells were then either left unstimulated (N) or subjected to a single LPS challenge at 500 ng/ml^−1 for indicated hours (NL) or first primed with 100 ng/ml^−1 LPS to induce the ET for 24 h, followed by the second LPS challenge at 500 ng/ml^−1 for indicated hours (TL). Before the LPS challenge, cells were washed once and cultured in serum-free DMEM without phenolred, containing 1 mM sodium pyruvate and 10 mM L-glutamine. The secreted proteins were harvested and prepared (Meissner et al., 2013).
LFQ secretome analyses were performed via reversed phase LC-MS/MS using a Proxeon 1000 nano LC system coupled to an Q Exactive mass spectrometer (Thermo Scientific). […]
Label-free quantitation was based on the peak area (Cox et al., 2008; Gunawardena et al., 2013; Gunawardena et al., 2011; Porro et al., 2007). The measured area under the curve of m/z and retention time aligned extracted ion chromatogram (XIC) of a peptide was performed via the label-free quantitation module found in MaxQuant™ (vera 1.3.0.5) (Cox et al., 2008). All replicates (biological and technical replicates) of each experimental conditions: N, NL-16 h, TL-16 h, were included in the LFQ experimental design with protein-level quantitation and normalization performed using unique and razor peptide features corresponding to identifications filtered with a peptide FDR of 0.01 and protein FDR of 0.05. […]

[7] = tested on: H3K36me2; assay: immunoblot analysis of dimethylated H3K36; assay type: cell-based, mouse; settings: treated vs non-treated BMDMs, TL
Experimental: as §1

[8] = tested on: Raw264.7 cells; assay: Clonogenic survival assay; assay type: cell-based, mouse; set-up: dose or concentration left out as unconfirmed
Experimental: Raw264.7 cells were counted and plated in six-well cell culture plates with 50, 100 and 200 viable cells in duplicated wells. Cells were primed with 100 ng/ml^−1 LPS for […] to reach the condition of ET and replenished with fresh media. […] After 9-day cell growth, cell colonies were washed with PBS, fixed with a mixture of methanol-acetic acid (3:1 in volume ratio) for 10 min, stained with 10% Giemsa (Ricca Chemical Company, Arlington, Tex., United States of America) for 30 min, gently washed with water and air dried. The colonies containing more than 20 cells were counted and the percentage of the survived cells under each condition was determined compared with the number of colonies on non-LPS or UNC0638-treated plates.

[9] = tested on: H3K9me2; assay: ChIP analysis with anti-H3K9me2 antibody in BMDMs; assay type: cell-based, mouse; settings: BMDMs treated prior to LPS stimulation; inhibitor pre-treated TL cells compared with NL
Experimental: as §2

[10] = tested on: HDAC1; assay: ChIP-PCR binding of HDAC1 to T-gene (IL6) promoter; assay type: cell-based, mouse; settings: treated BMDMs during ET
Experimental: as §2

[11] = tested on: G9a; assay: ChIP abundance of G9a within T-class promoters; assay type: cell-based, mouse; settings: pre-treated TL cells
Experimental: as §2

CC(C)C[C@@H](C=O)NC(=O)[C@H](CC(C)C)NC(=O)[C@H](CC(C)C)NC(=O)OCc1ccccc1 [MG-132] (Cbz-Leu-Leu-Leu-aldehyde)
c-Myc level with post-treatment time ([1]; G9a-KD Raw264.7 cells): progressive accumulation | c-Myc level with longer post-treatment time ([1]; wild-type Raw264.7 cells (presence of G9a)): reduced

COc1cc2c(NC3CCN(C(C)C)CC3)nc(C3CCCCC3)nc2cc1OCCCN1CCCC1 [UNC0638, 2-Cyclohexyl-N-(1-isopropylpiperidin-4-yl)-6-methoxy-7-(3-(pyrrolidin-1-yl)propoxy) quinazolin-4-amine]
methylated level of H3K27 [2]: reduced | TL-specific binding of MTA1 to T-class genes [3]: diminished | change in abundance of G9a [4]: little change | c-Myc binding to the NT-genes [5]: not affected | c-Myc binding to the loci of IL6 ([5]; treated BMDMs under TL): diminished | c-Myc binding to IL6, IP-10 and p21 ([5]; under TL): reduced | share of 992 identified proteins showing repressed releases whose secretion levels increased [6]: 45% | level of H3K36me2 [7]: decreased | percentage of survived cells ([8]; cells under TL, 9-day growth): significantly reduced | percentage of survived cells ([8]; non-treated (non-LPS) wild-type cells): little effect | change in H3K9me2 (ChIP) [9]: greater decreases | IL6-specific binding of HDAC1 [10]: diminished

O=C(CCCCCCC(=O)Nc1ccccc1)NO [SAHA]
abundance of G9a within the T-class promoters [11]: reduced
